# Results from patent publication US20240025862A1, “SUBSTITUTED N-PHENYLURACILS AND SALTS THEREOF, AND USE THEREOF AS HERBICIDAL ACTIVE SUBSTANCES” (Bayer Aktiengesellschaft, priority 2020, published 2024).
# Assays:
# Type in all cases: in vivo
# [1] = tested on: Pharbitis purpurea (PHBPU); assay: Post-emergence herbicidal action, greenhouse pot test
# Outline: (§1)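 Greenhouse-grown weeds in sandy loam were sprayed post-emergence at the one-leaf stage, 2–3 weeks after sowing. Compounds were formulated as WP or EC in water with 0.5% additive at 600 l/ha, at rates of 20 g/ha or less. Visual rating after about 3 weeks used a scale from 0% (like untreated control) to 100% (plants dead).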
# [2] = tested on: Abutilon theophrasti (ABUTH); assay: as above; conditions: rated visually after about 3 weeks vs untreated controls, 100% = plants have died
# Outline: as §1
# Veronica persica (VERPE) = assay: as above
# Outline: as §1
# [3] = tested on: Polygonum convolvulus (POLCO); assay: as above
# Outline: as §1
# Stellaria media (STEME) = assay: as above
# Outline: as §1
# Avena fatua (AVEFA) = assay: as above; conditions: 20 g/ha, rated visually after about 3 weeks vs untreated controls, 100% = plants have died
# Outline: as §1
# Viola tricolor (VIOTR) = assay: as above
# Outline: as §1
# [4] = tested on: Amaranthus retroflexus (AMARE); assay: as above; conditions: rated visually after about 3 weeks vs untreated controls, 100% = plants have died
# Outline: as §1
# Hordeum murinum (HORMU) = assay: as above; conditions: rated visually after about 3 weeks vs untreated controls, 100% = plants have died
# Outline: as §1
# Brassica napus (BRSNW) = assay: Post-emergence crop plant compatibility, greenhouse pot test; conditions: 1.25 g/ha, vs untreated controls
# Outline: (§2)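 Greenhouse-grown crop plants sprayed post-emergence at the one-leaf stage with WP or EC formulations plus 0.5% additive, at 600 l/ha water. Damage rated visually after about 3 weeks versus untreated controls (0% = like control, 100% = dead); suffixes a/b/c denote different dosages.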
# [5] = tested on: Triticum aestivum (TRZAS); assay: as above; conditions: vs untreated controls
# Outline: as §2
# Zea mays (ZEAMX) = assay: as above; conditions: 1.25 g/ha, vs untreated controls
# Outline: as §2
# Setaria viridis (SETVI) = assay: Post-emergence herbicidal action, greenhouse pot test (also comparative test C)
# Outline: (§3)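 Green parts of one-leaf-stage plants are sprayed at 600 l/ha with formulated compound plus 0.5% additive, then kept under optimum greenhouse conditions for about 3 weeks. Damage is scored visually, where 100% means dead plants and 0% means no difference from controls.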
# [6] = tested on: Matricaria inodora (MATIN); assay: as above
# Outline: as §3
# [7] = tested on: Alopecurus myosuroides (ALOMY); assay: as above; conditions: rated visually after about 3 weeks vs untreated controls, 100% = plants have died
# Outline: as §3
# [8] = tested on: Echinochloa crus-galli (ECHCG); assay: as above
# Outline: as §3
smiles,measurement,setting,value
Cn1c(C(F)(F)F)cc(=O)n(-c2cc(Sc3ccccc3OCC(=O)OCC3CCCO3)c(Cl)cc2F)c1=O (racemic) [I.1-71],Post-emergence action against PHBPU in %,[1]; dosage 1.25 g/ha,100%
same,Post-emergence action against PHBPU in %,[1]; dosage 5 g/ha,100%
same,Post-emergence action against PHBPU in %,[1]; dosage 20 g/ha,100%
same,Post-emergence action at 1.25 g/ha against ABUTH in %,[2]; 1.25 g/ha,100%
same,Post-emergence action at 5 g/ha against ABUTH in %,[2]; 5 g/ha,100%
same,Post-emergence action at 20 g/ha against ABUTH in %,[2]; 20 g/ha,100%
same,Post-emergence action against VERPE,Veronica persica (VERPE); 1.25 g/ha,100%
same,Post-emergence action against VERPE,Veronica persica (VERPE); 5 g/ha,100%
same,Post-emergence action against VERPE,Veronica persica (VERPE); 20 g/ha,100%
same,Post-emergence action against POLCO in %,[3]; dosage 1.25 g/ha,100%
same,Post-emergence action against POLCO in %,[3]; dosage 5 g/ha,100%
same,Post-emergence action against POLCO in %,[3]; dosage 20 g/ha,100%
same,Post-emergence action against STEME,Stellaria media (STEME); 1.25 g/ha,90%
same,Post-emergence action against STEME,Stellaria media (STEME); 5 g/ha,100%
same,Post-emergence action against STEME,Stellaria media (STEME); 20 g/ha,100%
same,Post-emergence action at 20 g/ha against AVEFA in %,Avena fatua (AVEFA),80%
same,Post-emergence action against VIOTR,Viola tricolor (VIOTR); 1.25 g/ha,100%
same,Post-emergence action against VIOTR,Viola tricolor (VIOTR); 5 g/ha,100%
same,Post-emergence action against VIOTR,Viola tricolor (VIOTR); 20 g/ha,100%
same,Post-emergence action at 1.25 g/ha against AMARE in %,[4]; 1.25 g/ha,100%
same,Post-emergence action at 5 g/ha against AMARE in %,[4]; 5 g/ha,100%
same,Post-emergence action at 20 g/ha against AMARE in %,[4]; 20 g/ha,100%
same,Post-emergence action at 5 g/ha against HORMU in %,Hordeum murinum (HORMU); 5 g/ha,80%
same,Post-emergence action at 20 g/ha against HORMU in %,Hordeum murinum (HORMU); 20 g/ha,90%
same,Post-emergence action against BRSNW (crop plant compatibility),Brassica napus (BRSNW),20%
same,Post-emergence action against TRZAS (crop plant compatibility),[5]; 1.25 g/ha,10%
same,Post-emergence action against TRZAS (crop plant compatibility),[5]; 5 g/ha,20%
same,Post-emergence action against ZEAMX (crop plant compatibility),Zea mays (ZEAMX),20%
same,Post-emergence action against SETVI,Setaria viridis (SETVI); 20 g/ha,100%
same,Post-emergence action against SETVI in %,Setaria viridis (SETVI); dosage 1.25 g/ha,100%
same,Post-emergence action against SETVI in %,Setaria viridis (SETVI); dosage 5 g/ha,100%
same,Post-emergence action against MATIN in %,[6]; dosage 1.25 g/ha,80%
same,Post-emergence action against MATIN in %,[6]; dosage 5 g/ha,90%
same,Post-emergence action against MATIN in %,[6]; dosage 20 g/ha,100%
same,Post-emergence action at 5 g/ha against ALOMY in %,[7]; 5 g/ha,80%
same,Post-emergence action at 20 g/ha against ALOMY in %,[7]; 20 g/ha,90%
same,Post-emergence action at 1.25 g/ha against ECHCG in %,"[8]; 1.25 g/ha, rated visually after about 3 weeks vs untreated controls, 100% = plants have died",100%
same,Post-emergence action against ECHCG in %,[8]; dosage 20 g/ha,100%
